Converted amounts (≈) assume the structure as drawn. Where two headings read alike, the source gives them in different places.
How the values were obtained:
in vitro [1] = type: in vitro ADME, human
Description: (§1) For several compounds only human liver microsomal stability was tested. […] The microsomal assays were carried out with and without the addition of NADPH at a final concentration of 1 mM. For negative control samples, NADPH reagent was not added. […] Note that compounds undergo only Phase I metabolism in liver microsomes.

[2] = Stability in simulated gastric fluid (SGF); type: in vitro ADME
Description: (§2) The stability of exemplary compounds in simulated gastric fluid (SGF) and simulated intestinal fluid (SIF) was tested according to the following protocol.

[3] = Dog liver microsomal stability; type: in vitro ADME
Description: as §1
(§3) CLint=the intrinsic hepatic clearance (uL/min/mg), where CLint is equal to 0.693/(t1/2×Cmp)
Certain compounds were also tested in mice and dog liver microsome assays according to the protocol outlined above. […].

[4] = Rat liver microsomal stability; type: in vitro ADME
Description: as §1, §3

[5] = Stability in simulated intestinal fluid (SIF); type: in vitro ADME
Description: as §2

in vitro [6] = settings: for Observations: stability / GNX production in human plasma / half-life / Observations: stability / GNX production in rat plasma: plasma
Description: The plasma stability of exemplary compounds was tested using rat, mice, dog, and human plasma, according to the following protocol. For each test compound, samples at a final concentration of 2 μg/mL were prepared in blank plasma of selected species. All samples were incubated at 37° C. on a 150-RPM orbital shaker, and an aliquot was removed at pre-determined time points (0, 15, 30, 60, and 120 minutes). Samples were precipitated with three volumes of acetonitrile containing propranolol as internal standard, and centrifuged for 10 min at 2000 g before LC/MS/MS analysis of the supernatant solutions.

Dog plasma stability = type: in vitro ADME
[7] = Measured solubility in buffer, LC-MS/MS; type: physicochemical; settings: aqueous buffer, thermodynamic from solid
Description: […] The mixture was vortexed and a magnetic stirring bar was subsequently added to the vial. The vial was placed on a magnetic stirrer with constant stirring for 16-24 hours at room temperature. The pH of the top layer solution was measured. Subsequently, 200 μL of the top layer solution was placed in a 1.5 mL microcentrifuge tube and centrifuged at 18,000 g for 10 min at room temperature. A 10 μL aliquot of supernatant was added to 990 μL of methanol:water (1/:1, v/v) and vortexed. Then, one volume of acetonitrile containing internal standard was added to one volume of the above 100-fold diluted solution and the resulting solution was vortexed and placed in 96-well plate for LC-MS/MS analysis. […] LC-MS-MS analysis was performed utilizing multiple reaction monitoring for detection of characteristic ions for each test compound, additional related analytes and internal standard.

[8] = human liver microsomes 0.5 mg/mL, with NADPH, compound 0.5 μM, 37° C., read-out: Human Liver Microsomal Stability t1/2
[9] = human liver microsomes 0.5 mg/mL, with NADPH, compound 0.5 μM, read-out: Human Liver Microsomal Stability CLint (uL/min/mg liver) (converted)
[10] = human liver microsomes, no NADPH, compound 0.5 μM
[11] = SGF with pepsin pH 1.2, 37° C., 60 min
[12] = simulated gi fluid, SGF with pepsin pH 1.2, 37° C., 2 μg/mL, read-out: SGF t1/2
[13] = dog liver microsomes 0.5 mg/mL, compound 0.5 μM, read-out: Dog Liver Microsomal Stability CLint (uL/min/mg liver)
[14] = dog liver microsomes 0.5 mg/mL, compound 0.5 μM, read-out: Dog Liver Microsomal Stability t1/2
[15] = rat liver microsomes 0.5 mg/mL, with NADPH, compound 0.5 μM, 37° C., read-out: Rat Liver Microsomal Stability t1/2
[16] = rat liver microsomes 0.5 mg/mL, with NADPH, compound 0.5 μM, read-out: Rat Liver Microsomal Stability CLint (uL/min/mg liver)
[17] = rat liver microsomes, no NADPH, compound 0.5 μM
[18] = SIF with pancreatin pH 6.8, 37° C., 60 min
[19] = simulated gi fluid, SIF with pancreatin pH 6.8, 37° C., 2 μg/mL, read-out: SIF t1/2
[20] = dog plasma, 2 μg/mL, 37° C., read-out: Dog plasma Half life (t1/2)
[21] = simulated gi fluid, 1 h, pH 1.2
[22] = simulated gi fluid, 1 h, pH 6.8
[23] = pH 7.4, 50 mM phosphate buffer, 16-24 hours, room temperature, read-out: Solubility pH 7.4
[24] = buffer, pH 2.0, room temperature, read-out: Solubility pH 2.0

SMILES | Comments: production of GNX (ganaxolone) in human liver microsomes (in vitro [1]; human liver microsomes) | half-life (in vitro [1]; [8]) | microsomal CLint (in vitro [1]; [9]) | Human Liver Microsomal Stability no NADPH, % remain 1 h (in vitro [1]; [10]) | SGF (% remain, 60 min) [2, 11] | microsomal CLint [3, 13] | half-life [3, 14] | Comments: production of GNX (ganaxolone) in rat liver microsomes ([4]; rat liver microsomes) | half-life [4, 15] | microsomal CLint [4, 16] | Rat Liver Microsomal Stability no NADPH, % remain 1 h [4, 17] | SIF (% remain, 60 min) [5, 18] | Human plasma t90 (in vitro [6]; human plasma, 2 μg/mL, 37° C.) | Observations: stability / GNX production in human plasma (in vitro [6]; human) | half-life (in vitro [6]; human) | Rat plasma t90 (in vitro [6]; rat plasma, 2 μg/mL, 37° C.) | Observations: stability / GNX production in rat plasma (in vitro [6]; rat) | half-life (in vitro [6]; rat) | solubility [7, 23] | solubility [7, 24] | also measured
CC(=O)[C@H]1CC[C@H]2[C@@H]3CC[C@H]4C[C@](C)(OC(=O)COC(=O)C(C)(C)OC(=O)CN(CCO)CCO)CC[C@]4(C)[C@H]3CC[C@]12C [Compound 228] | In human GNX produced. | 6.2 min | 225 µL/min/mg | 6% | 89% | 129 µL/min/mg | 10.7 min | In rat no GNX produced; | 16.4 min | 84.4 µL/min/mg | 15% | 1.7% | 1.4 min | No GNX produced | 0.15 h | 1.8 min | GNX produced in rat | 0.2 h | – | – | half-life [2, 12]: 8.52 h; Dog Liver Microsomal Stability no NADPH, % remain 1 h ([3]; dog liver microsomes, no NADPH): 12.9%; half-life [5, 19]: 32 min; Observations: stability / GNX production in dog plasma (Dog plasma stability; dog plasma): No GNX produced; Dog plasma t90 (Dog plasma stability; dog plasma, 2 μg/mL, 37° C.): 3 min; half-life (Dog plasma stability; [20]): 0.333 h
CC(=O)OCCN(C)CC(=O)OC(C)(C)C(=O)OCC(=O)O[C@]1(C)CC[C@@]2(C)[C@@H](CC[C@@H]3[C@@H]2CC[C@]2(C)[C@@H](C(C)=O)CC[C@@H]32)C1 [Compound 242] | – | – | – | – | – | – | – | – | – | – | – | – | – | No GNX produced | 0.55 h | – | – | – | – | – | half-life (in vitro [1]; human, microsomes): 1.41 min; microsomal CLint (in vitro [1]; human, microsomes): 982 µL/min/mg; Human Liver Microsomal Stability no NADPH, % remain 1 h (in vitro [1]; human, microsomes): 0.26%; SGF (% remain, 60 min) [2, 21]: 99.1%; half-life ([2]; simulated gi fluid, pH 1.2): 76.6 h; half-life ([3]; dog, microsomes): 2.07 min; microsomal CLint ([3]; dog, microsomes): 668 µL/min/mg; Dog Liver Microsomal Stability no NADPH, % remain 1 h ([3]; dog, microsomes): 0.89%; SIF (% remain, 60 min) [5, 22]: 29%; half-life ([5]; simulated gi fluid, pH 6.8): 146 min; Human plasma t90 (in vitro [6]; human): 4.99 min; Dog plasma t90 (Dog plasma stability; dog): 578 min; Observations: stability / GNX production in dog plasma (Dog plasma stability; dog plasma): No GNX produced; half-life (Dog plasma stability; dog plasma): 64 h
CC(=O)[C@H]1CC[C@H]2[C@@H]3CC[C@H]4C[C@](C)(OC(=O)CNC(C)(C)C(=O)O)CC[C@]4(C)[C@H]3CC[C@]12C [Compound 120] | – | 16 min | 86 µL/min/mg | 8% | 83% | 17 µL/min/mg | 81 min | In rat no GNX produced; | 36 min | 38 µL/min/mg | 72% | 74% | 218 min | No GNX produced in rat, | 24.8 h | 78 min | No GNX produced in rat, | 8.67 h | 35 µg/mL (≈ 73.6 µM) | 39 µg/mL (≈ 82 µM) | half-life [2, 12]: 4.17 h; Dog Liver Microsomal Stability no NADPH, % remain 1 h ([3]; dog liver microsomes, no NADPH): 83%; half-life [5, 19]: 199 min; Observations: stability / GNX production in dog plasma (Dog plasma stability; dog plasma): No GNX produced in rat,; Dog plasma t90 (Dog plasma stability; dog plasma, 2 μg/mL, 37° C.): 88 min; half-life (Dog plasma stability; [20]): 9.72 h
CC(=O)[C@H]1CC[C@H]2[C@@H]3CC[C@H]4C[C@](C)(OC(=O)CO)CC[C@]4(C)[C@H]3CC[C@]12C [Compound 201] | In human, GNX produced | 17.4 min | 79.5 µL/min/mg | 70% | – | – | – | – | 32.4 min | 42.7 µL/min/mg | 99.5% | 98.0% | 313 min | compound very slowly | 34.6 h | 82 min | compound very slowly | 9.05 h | 33 µg/mL (≈ 84.5 µM) | 36 µg/mL (≈ 92.2 µM) | half-life [5, 19]: 1580 min
CC(=O)OCCN(CCOC(C)=O)CC(=O)OC(C)(C)C(=O)OCC(=O)O[C@]1(C)CC[C@@]2(C)[C@@H](CC[C@@H]3[C@@H]2CC[C@]2(C)[C@@H](C(C)=O)CC[C@@H]32)C1 [Compound 229] | – | 6.1 min | 227 µL/min/mg | 1% | – | 224 µL/min/mg | 6.2 min | – | – | – | – | – | – | – | – | – | – | – | 11 µg/mL (≈ 15.6 µM) | 22 µg/mL (≈ 31.2 µM) | Dog Liver Microsomal Stability no NADPH, % remain 1 h ([3]; dog liver microsomes, no NADPH): 1%
CC(=O)[C@H]1CC[C@H]2[C@@H]3CC[C@H]4C[C@](C)(OC(=O)CN5CCOCC5)CC[C@]4(C)[C@H]3CC[C@]12C [Compound 101] | GNX not produced in human or rat | – | – | – | – | – | – | GNX not produced in human or rat | – | – | – | – | – | Stable in human | 26.9 h | – | – | 37.8 h | – | – | half-life (in vitro [1]; human, microsomes): 10.2 min; microsomal CLint (in vitro [1]; human, microsomes): 137 µL/min/mg; Human Liver Microsomal Stability no NADPH, % remain 1 h (in vitro [1]; human, microsomes): 99.0%; SGF (% remain, 60 min) [2, 21]: 90.5%; half-life ([4]; rat, microsomes): 6.8 min; microsomal CLint ([4]; rat, microsomes): 204 µL/min/mg; Rat Liver Microsomal Stability no NADPH, % remain 1 h ([4]; rat, microsomes): 100.0%; SIF (% remain, 60 min) [5, 22]: 90.2%; Human plasma t90 (in vitro [6]; human): 243.0 min; Rat plasma t90 (in vitro [6]; rat): 342.0 min
COc1ccccc1N1CCN(CC(=O)O[C@]2(C)CC[C@@]3(C)[C@@H](CC[C@@H]4[C@@H]3CC[C@]3(C)[C@@H](C(C)=O)CC[C@@H]43)C2)CC1 [Compound 100] | GNX not produced in human or rat | 11.9 min | 116 µL/min/mg | 100.0% | 90.8% | – | – | GNX not produced in human or rat | 12.7 min | 109 µL/min/mg | 98.0% | 93.2% | 27.8 min | Stable in human, GNX not | 3.07 h | 27.9 min | – | 3.08 h | – | – | –
CC(=O)[C@H]1CC[C@H]2[C@@H]3CC[C@H]4C[C@](C)(OC(=O)COC(=O)CN5CCOCC5)CC[C@]4(C)[C@H]3CC[C@]12C [Compound 200] | – | 6 min | 229 µL/min/mg | 1% | 99.0% | – | – | – | 12.1 min | 115 µL/min/mg | 7.5% | 31% | 2.19 min | – | 0.243 h | 1.4 min | In rat, compound converted | 0.158 h | 29 µg/mL (≈ 56 µM) | 11800 µg/mL (≈ 22800 µM) | –

Source: patent US20250034201A1, “PRODRUGS OF GANAXOLONE” (priority 2022, published 2025)
